Measurements as given in ChEMBL document CHEMBL1152036, “Acyclic nucleoside triphosphate analogs as terminators in biocatalytic DNA replication” (Bioorg Med Chem Lett, 1997).

Key:
Nucleic Acid [1] = assay: The compound was evaluated as substrate for DNA replicating enzyme, rTth DNA polymerase; No incorporation; format: nucleic-acid assay
Nucleic Acid [2] = assay: The compound was evaluated as substrate for DNA replicating enzyme, AmpliTaq DNA polymerase; No incorporation; format: nucleic-acid assay
[3] = target: DNA polymerase I, thermostable (Thermus aquaticus) (UniProt P19821); assay: The compound was evaluated as substrate for DNA replicating enzyme, Taq DNA polymerase at a concentration of 1 mM; Termination
Sequence of DNA polymerase I, thermostable (Thermus aquaticus) (P19821 whole entry): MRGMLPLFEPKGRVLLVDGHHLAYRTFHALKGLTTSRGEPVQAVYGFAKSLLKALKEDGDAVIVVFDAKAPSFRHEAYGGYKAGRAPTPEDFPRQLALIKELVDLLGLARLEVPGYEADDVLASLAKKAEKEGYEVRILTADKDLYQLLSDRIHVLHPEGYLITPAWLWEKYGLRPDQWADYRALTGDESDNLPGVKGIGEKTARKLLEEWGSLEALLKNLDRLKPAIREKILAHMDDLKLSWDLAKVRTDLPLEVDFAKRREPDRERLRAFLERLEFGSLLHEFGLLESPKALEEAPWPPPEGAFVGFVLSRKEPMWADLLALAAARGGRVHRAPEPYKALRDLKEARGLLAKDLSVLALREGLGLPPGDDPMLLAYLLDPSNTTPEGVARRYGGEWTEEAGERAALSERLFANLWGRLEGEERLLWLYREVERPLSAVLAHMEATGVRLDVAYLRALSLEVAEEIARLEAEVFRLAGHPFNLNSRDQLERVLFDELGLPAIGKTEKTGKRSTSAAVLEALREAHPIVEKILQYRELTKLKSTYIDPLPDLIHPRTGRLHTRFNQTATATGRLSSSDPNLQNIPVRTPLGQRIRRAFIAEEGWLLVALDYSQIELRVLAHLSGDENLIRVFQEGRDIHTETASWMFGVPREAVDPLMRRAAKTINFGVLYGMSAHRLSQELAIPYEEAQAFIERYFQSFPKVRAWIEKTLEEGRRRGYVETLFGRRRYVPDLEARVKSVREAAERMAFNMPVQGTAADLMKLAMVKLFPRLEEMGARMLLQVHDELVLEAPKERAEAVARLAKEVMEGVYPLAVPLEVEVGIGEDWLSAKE

Nucleic Acid [4] = assay: The compound was evaluated as substrate for DNA replicating enzyme, AmpliTaq FS DNA polymerase at a concentration of 1 mM; Termination; format: nucleic-acid assay
[5] = tested on: HIV-1 reverse transcriptase (Human immunodeficiency virus 1); assay: The compound was evaluated as substrate for DNA replicating enzyme, HIV-1 RT at a concentration of 1 mM; Termination
Nucleic Acid [6] = assay: The compound was evaluated as substrate for DNA replicating enzyme, Bst DNA polymerase; No incorporation; format: nucleic-acid assay
[7] = target: DNA polymerase I, thermostable (Thermus aquaticus) (UniProt P19821); assay: The compound was evaluated as substrate for DNA replicating enzyme, Taq DNA polymerase at a concentration of 100 uM; Termination
[8] = tested on: HIV-1 reverse transcriptase (Human immunodeficiency virus 1); assay: The compound was evaluated as substrate for DNA replicating enzyme, HIV-1 RT at a concentration of 1 mM; Not assayed
Nucleic Acid [9] = assay: The compound was evaluated as substrate for DNA replicating enzyme, AmpliTaq FS DNA polymerase at a concentration of 100 uM; Termination; format: nucleic-acid assay

Measured: Activity

Cc1cn(CC(=O)N(C)CCOP(=O)(O)OP(=O)(O)OP(=O)(O)O)c(=O)[nH]c1=O
inactive: Nucleic Acid [1] No incorporation | Nucleic Acid [2] No incorporation | [3] No incorporation | Nucleic Acid [4] No incorporation | [5] No incorporation | Nucleic Acid [6] No incorporation

CN(CCOP(=O)(O)OP(=O)(O)OP(=O)(O)O)C(=O)Cn1cnc2c(N)ncnc21
inactive: Nucleic Acid [1] No incorporation | [7] No incorporation | [8] No incorporation | Nucleic Acid [9] No incorporation | Nucleic Acid [6] No incorporation
